Measurements published in patent publication US20180071242A1, “SUBSTITUTED ACYLANILIDES AND METHODS OF USE THEREOF” (University of Tennessee Research Foundation, priority 2006, published 2018).

Experiments:
PR = target: T1, PR (Rattus norvegicus, UniProt Q63449); test: Transient transfection luciferase transactivation assay in HEK-293 cells; format: cell-based; conditions: for PR-mediated transactivation, agonist mode (in words): all tested concentrations
T1 construct: expressed in transfected cells; host or cells: HEK-293
T1 sequence (Q63449 1-923): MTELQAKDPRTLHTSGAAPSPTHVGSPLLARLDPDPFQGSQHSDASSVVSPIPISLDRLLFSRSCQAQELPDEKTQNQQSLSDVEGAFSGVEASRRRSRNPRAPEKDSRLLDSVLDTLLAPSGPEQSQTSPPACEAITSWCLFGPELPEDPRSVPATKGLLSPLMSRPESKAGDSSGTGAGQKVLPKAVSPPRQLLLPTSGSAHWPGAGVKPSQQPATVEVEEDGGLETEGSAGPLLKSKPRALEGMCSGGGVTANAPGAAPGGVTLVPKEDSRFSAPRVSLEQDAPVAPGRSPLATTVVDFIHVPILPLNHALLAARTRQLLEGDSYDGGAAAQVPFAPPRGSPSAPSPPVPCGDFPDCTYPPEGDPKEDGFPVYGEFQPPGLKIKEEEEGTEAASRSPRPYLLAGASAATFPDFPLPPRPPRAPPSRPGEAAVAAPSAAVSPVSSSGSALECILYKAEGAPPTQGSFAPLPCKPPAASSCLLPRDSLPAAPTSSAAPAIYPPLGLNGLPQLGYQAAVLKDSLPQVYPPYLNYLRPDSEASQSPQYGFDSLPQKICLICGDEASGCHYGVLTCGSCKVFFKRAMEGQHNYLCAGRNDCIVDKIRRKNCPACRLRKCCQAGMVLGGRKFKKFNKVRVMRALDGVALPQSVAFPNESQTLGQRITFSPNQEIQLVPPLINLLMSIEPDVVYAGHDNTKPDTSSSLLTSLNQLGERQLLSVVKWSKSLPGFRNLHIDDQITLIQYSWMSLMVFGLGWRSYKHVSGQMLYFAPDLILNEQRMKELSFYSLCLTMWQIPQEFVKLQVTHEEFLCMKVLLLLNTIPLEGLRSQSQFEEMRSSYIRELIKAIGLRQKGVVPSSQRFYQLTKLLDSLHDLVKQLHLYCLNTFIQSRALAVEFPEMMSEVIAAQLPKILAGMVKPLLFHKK

CYP2D6 = CYP2D6 (Homo sapiens, UniProt P10635); test: CYP inhibition screening, recombinant enzyme (fluorescent-based) assay
Chain of CYP2D6 (P10635 whole entry): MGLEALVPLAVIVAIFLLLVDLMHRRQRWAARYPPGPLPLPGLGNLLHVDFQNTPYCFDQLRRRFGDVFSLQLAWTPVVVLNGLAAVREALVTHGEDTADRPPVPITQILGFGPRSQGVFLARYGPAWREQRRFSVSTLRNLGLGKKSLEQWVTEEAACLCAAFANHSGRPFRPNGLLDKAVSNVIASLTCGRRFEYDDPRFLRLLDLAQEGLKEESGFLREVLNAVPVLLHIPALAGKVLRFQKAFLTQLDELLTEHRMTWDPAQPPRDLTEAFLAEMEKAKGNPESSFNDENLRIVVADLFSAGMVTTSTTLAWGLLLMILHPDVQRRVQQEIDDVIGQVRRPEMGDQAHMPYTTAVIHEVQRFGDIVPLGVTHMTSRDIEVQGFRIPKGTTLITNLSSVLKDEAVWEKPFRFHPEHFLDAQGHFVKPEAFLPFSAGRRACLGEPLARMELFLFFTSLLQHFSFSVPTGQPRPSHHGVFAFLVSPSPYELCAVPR
Experimental: (§1) Human recombinant CYP enzymes and fluorescence-based substrates were used to determine the IC50 values of S-(I) against CYP3A4, 2D6, 2C19, 2C9, and 1A2.
(§2) CYP inhibition screening procedures were performed essentially according to the manufacturer's instructions (Gentest, BD Biosciences, Waltham, Mass.). Briefly, CYP enzyme inhibition was measured using human cDNA-expressed CYP3A4, 2D6, 2C19, 2C9, and 1A2 enzymes. Analogs of the model substrate coumarin were utilized for each isoenzyme.
(§3) The concentration of acetonitrile was kept constant at 0.4%, and the reaction was carried out at 37° C. for 30 minutes.
(§4) For IC50 determination, data was fitted using the non-linear regression equation “sigmoidal dose response, variable slope” defined as: Y=Bottom+(Top-Bottom)/(1+10̂((Log EC50−X)*HillSlope)) where X is the logarithm of concentration of the indicated compound, and Y is the response.

CYP1A2 = target: T2, CYP1A2 (Homo sapiens, UniProt P05177); test: as above
T2 sequence (P05177 1-516): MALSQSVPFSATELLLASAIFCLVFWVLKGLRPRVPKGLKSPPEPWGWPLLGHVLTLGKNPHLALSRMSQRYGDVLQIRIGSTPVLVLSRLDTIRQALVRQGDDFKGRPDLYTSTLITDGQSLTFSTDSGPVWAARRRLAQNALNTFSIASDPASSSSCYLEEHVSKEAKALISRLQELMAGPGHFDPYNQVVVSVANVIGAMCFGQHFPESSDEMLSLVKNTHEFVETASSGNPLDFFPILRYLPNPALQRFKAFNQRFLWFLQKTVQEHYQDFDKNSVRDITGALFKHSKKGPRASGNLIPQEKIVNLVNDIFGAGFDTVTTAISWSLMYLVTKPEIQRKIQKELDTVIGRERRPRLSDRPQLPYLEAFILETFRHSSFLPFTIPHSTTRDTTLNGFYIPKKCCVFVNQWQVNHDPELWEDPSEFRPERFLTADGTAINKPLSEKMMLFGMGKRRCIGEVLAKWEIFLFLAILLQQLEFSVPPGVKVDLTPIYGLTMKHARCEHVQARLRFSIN
Experimental: as §1, §2, §3, §4

Pharmacokinetics in dogs = format: in vivo; conditions: beagle dogs
Experimental: In order to determine the pharmacokinetics of the S-isomer of the compound of formula (I) [S-(I)], the compound was administered to beagle dogs perorally, and circulating plasma levels, terminal elimination half-life (t1/2), total body clearance (CL), terminal volume distribution (Vz) and absolute bioavailability (F %) (Table 4) were determined.

[1] = system: DMD (−/−) UTRN (−/−) mice; test: Double knockout mouse model of Duchenne muscular dystrophy; conditions: 10 mg/kg/day, data cumulative across the SARM groups
[2] = system: intact male Sprague-Dawley rats; test: Anabolic and androgenic activity in intact male rats; format: in vivo, rat
Experimental: Anabolic and androgenic efficacy of compound of formula (I) administered by daily oral gavage were tested. The S-isomer of compound (I) [S-(I)] was synthesized and tested as described herein.
The test article for this study was weighed and dissolved in 10% DMSO (Fischer) diluted with PEG 300 (Acros Organics, NJ) for preparation of the appropriate dosage concentrations. The animals were housed in groups of 2 to 3 animals per cage. Animals were randomly assigned to one of seven groups consisting of 4 to 5 animals per group. Control groups (intact and ORX) were administered vehicle daily. S-(I) was administered via oral gavage at doses of 0.01, 0.03, 0.1, 0.3, 0.75, and 1 mg/day to both intact and ORX groups. Where appropriate, animals were castrated on day one of the study. […]
The animals were sacrificed under anesthesia (ketamine/xyalzine, 87:13 mg/kg) and body weights were recorded. In addition, ventral prostate, seminal vesicles, and levator ani muscle were removed, individually weighed, normalized to body weight, and expressed as a percentage of intact control. […] Ventral prostate and seminal vesicle weights were evaluated as a measure of androgenic activity, whereas levator ani muscle weight was evaluated as a measure of anabolic activity. […] Serum luteinizing hormone (LH) and follicle stimulating hormone (FSH) concentrations were determined.

[3] = 1 and 10 μM, with 1 nM progesterone

| Compound | Inhibition of PR activity, antagonist mode (in words) (PR; [3]) | PR-mediated transactivation, agonist mode (in words) (PR) | IC50 (CYP2D6) | IC50 (CYP1A2) | Absorption (in words) (Pharmacokinetics in dogs; perorally) | bioavailability (Pharmacokinetics in dogs; dog, plasma, oral, perorally, read-out: F%, absolute bioavailability) | clearance (Pharmacokinetics in dogs; dog, plasma, oral, read-out: CL, total body clearance) | Vd (Pharmacokinetics in dogs; dog, plasma, oral, read-out: Vz, terminal volume distribution) | half-life (Pharmacokinetics in dogs; dog, plasma, oral, read-out: t½, terminal elimination half-life (converted)) | Inhibition of PR activity, antagonist mode (in words) (PR; 0.1 μM and 10 μM) | Increase of PR transactivation, agonist mode (PR; 1 μM) | Inhibition of PR-mediated transactivation, antagonist mode (in words) (PR; 1 μM) | Increase of PR transactivation, agonist mode (PR; 10 μM) | PR antagonistic activity relative to RU486 (fold weaker) (PR; versus RU486) | PR agonist potency relative to progesterone (fold weaker) (PR; versus endogenous agonist progesterone) | Ability to be ambulatory (in words) [1] | Deterioration of body weight (in words) [1] | Deterioration of grip strength (in words) [1] | Deterioration of lean mass (in words) [1] | Seminal vesicles weight (in words) [2] |
| --- | --- | --- | --- | --- | --- | --- | --- | --- | --- | --- | --- | --- | --- | --- | --- | --- | --- | --- | --- | --- |
| C[C@](O)(COc1ccc(Cl)cc1)C(=O)Nc1ccc(C#N)c(C(F)(F)F)c1 [S-(II)] | significantly inhibited | did not induce | > 20 µM | > 20 µM |  |  |  |  |  |  |  |  |  |  |  |  |  |  |  |  |
| C[C@](O)(COc1ccc(F)cc1)C(=O)Nc1ccc(C#N)c(C(F)(F)F)c1 [S-(III)] | significantly inhibited | did not induce | > 20 µM | > 20 µM |  |  |  |  |  |  |  |  |  |  |  |  |  |  |  |  |
| C[C@](O)(COc1ccc(C#N)cc1)C(=O)Nc1ccc(C#N)c(Cl)c1 [S-(I), (S)—N-(3-chloro-4-cyanophenyl)-3-(4-cyanophenoxy)-2-hydroxy-2-methylpropanamide] |  | partial agonist activity | > 20 µM | > 20 µM | rapidly and completely absorbed | 96.2% | 1.68 ± 0.13 mL/min/kg | 1.52 ± 0.142 L/kg | 10.4 ± 0.5 h | significantly partially inhibited | 3 fold | completely inhibited | 8 fold | about 1,000 fold | greater than 10,000 fold | enhanced the ability of these mice to be ambulatory | delayed the deterioration | delayed the deterioration | delayed the deterioration | decreases |
